Experimental data reported in patent US9850283B2, “Macrocyclic inhibitors of the PD-1/PD-L1 and CD80(B7-1)/PD-L1 protein/protein interactions” (BRISTOL-MYERS SQUIBB COMPANY, priority 2013, dated 2017).
Where two headings read alike, the source gives them in different places. Positions of bridges follow the written chain, without caps; N, C: chain ends. Non-standard residues stand in square brackets, D forms with d. Residues, ends and D or L forms follow the SMILES beside them. ξ: configuration not given here. *: point of attachment. Phe(3,4,5-F3) = N[C@@H](Cc1cc(F)c(F)c(F)c1)C(=O)O; Phe(4-tBu) = CC(C)(C)c1ccc(C[C@H](N)C(=O)O)cc1; d(cisHyp) = O=C(O)[C@H]1C[C@@H](O)CN1; Phe(2-Me) = Cc1ccccc1C[C@H](N)C(=O)O; Bta = N[C@@H](Cc1csc2ccccc12)C(=O)O; Hyp = O=C(O)[C@@H]1C[C@@H](O)CN1; NMeF = CN[C@@H](Cc1ccccc1)C(=O)O; NMeE = CN[C@@H](CCC(=O)O)C(=O)O; dNMeE = CN[C@H](CCC(=O)O)C(=O)O; NMeNle = CCCC[C@H](NC)C(=O)O; NMeM = CN[C@@H](CCSC)C(=O)O; NMeS = CN[C@@H](CO)C(=O)O; hSer = N[C@@H](CCO)C(=O)O; NMeA = CN[C@@H](C)C(=O)O; dNMeA = CN[C@H](C)C(=O)O; Dab = NCC[C@H](N)C(=O)O; Dap = NC[C@H](N)C(=O)O; Bn = c1ccc(C*)cc1; ξC = NC(CS)C(=O)O; Sar = CNCC(=O)O

Tests used:
[1] = biological target: T1, LK35.2-hPD-L1 cells / PE-labeled PD-1-Ig (Homo sapiens, UniProt Q9NZQ7); experiment: LK35.2-hPD-L1 cell binding high-content screening assay; assay type: cell-based; settings: cluster symbol, read-out: CBA IC50 cluster
T1 construct: expressed in transfected cells; host or cells: LK35.2 mouse B cell line
Procedure, shortened: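 Fluorescent PD-1-Ig binding to PD-L1-expressing LK35.2 cells, imaged after washing. Conditions: 1 nM PE-PD-1-Ig, 37 °C, 1 h, RPMI with 10% fetal calf serum.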

[2] = biological target: T2, Human PD-L1/PD-1 (Homo sapiens, UniProt Q9NZQ7); experiment: HTRF PD-1-Ig/PD-L1-His binding assay (human PD-L1); settings: cluster symbol; read-out: HTRF IC50 cluster
T2 construct: made in house; host or cells: HEK293T
Procedure, shortened: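 Readout: time-resolved FRET between Eu cryptate-labeled anti-Ig (1 nM final) and APC-labeled anti-His (20 nM final) antibodies. These detect interaction of Fc-fused PD-1 with His-tagged human PD-L1 in dPBS containing 0.1% BSA and 0.05% Tween-20.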

[3] = cell binding assay, cell line not given
[4] = cell line of CBA not given (LK35.2-hPD-L1 or 293T-hPD-L1)

T2 sequence (Q9NZQ7 with tags, fused parts or gaps): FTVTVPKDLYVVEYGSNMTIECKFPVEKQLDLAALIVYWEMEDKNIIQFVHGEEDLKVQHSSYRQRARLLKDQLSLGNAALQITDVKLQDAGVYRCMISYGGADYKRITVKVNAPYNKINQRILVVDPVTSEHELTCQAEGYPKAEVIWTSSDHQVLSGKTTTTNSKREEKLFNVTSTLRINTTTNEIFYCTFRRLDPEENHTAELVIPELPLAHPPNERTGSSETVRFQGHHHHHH
T1 sequence (Q9NZQ7 19-290): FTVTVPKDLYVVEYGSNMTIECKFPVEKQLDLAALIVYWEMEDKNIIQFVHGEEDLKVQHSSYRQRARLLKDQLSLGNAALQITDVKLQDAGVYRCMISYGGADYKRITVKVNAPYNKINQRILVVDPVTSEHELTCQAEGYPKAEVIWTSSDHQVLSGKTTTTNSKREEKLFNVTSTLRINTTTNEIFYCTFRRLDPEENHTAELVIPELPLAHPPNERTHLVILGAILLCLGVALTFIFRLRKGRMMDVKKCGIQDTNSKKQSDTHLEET

| IC50 [1, 3] | IC50 [2] | IC50 [1, 4] | SMILES |
| --- | --- | --- | --- |
| > 74.3 nM | > 30.5 nM |  | CCCC[C@H]1C(=O)N(C)CC(=O)N[C@@H](CC(=O)O)C(=O)N[C@@H](C(C)C)C(=O)N(C)[C@@H](Cc2ccccc2)C(=O)N[C@@H](Cc2ccc(O)cc2)C(=O)N(C)CC(=O)N[C@@H](Cc2c[nH]c3ccccc23)C(=O)N[C@@H](Cc2c[nH]c3ccccc23)C(=O)N[C@@H](CC(C)C)C(=O)N[C@H](C(=O)NCC(N)=O)CSCC(=O)N[C@@H](Cc2ccccc2)C(=O)N(C)[C@@H](Cc2ccccc2)C(=O)N1C [Example 3539] (HELM PEPTIDE1{[O=C(C[*:3])[*:2]].F.[meF].[CCCC[C@@H](C(=O)[*:2])N(C)[*:1]].[Sar].D.V.[meF].Y.[Sar].W.W.L.C.G.[am]}$PEPTIDE1,PEPTIDE1,1:R3-14:R3$$$V2.0) |
| 4.78 to 72.9 nM | 6.76 to 30.3 nM |  | CCCC[C@H]1C(=O)N(C)CC(=O)N[C@@H](CC(=O)O)C(=O)N[C@@H](C(C)C)C(=O)N(C)[C@@H](Cc2ccccc2)C(=O)N[C@@H](Cc2ccc(O)cc2)C(=O)N(C)[C@H](C)C(=O)N[C@@H](Cc2c[nH]c3ccccc23)C(=O)N[C@@H](Cc2ccc(O)cc2)C(=O)N[C@@H](CC(C)C)C(=O)N[C@H](C(=O)NCC(N)=O)CSCC(=O)N[C@@H](Cc2ccccc2)C(=O)N(C)[C@@H](Cc2ccccc2)C(=O)N1C [Example 3551] ({CH2CO}-F[NMeF][NMeNle][Sar]DV[NMeF]Y[dNMeA]WYLCG-NH2; thioether N-13) |
| 4.78 to 72.9 nM | 6.76 to 30.3 nM |  | CC(C)C[C@@H]1NC(=O)[C@H](Cc2cnc[nH]2)NC(=O)[C@@H]2CCCN2C(=O)[C@H](CC(N)=O)NC(=O)[C@H](C)N(C)C(=O)[C@H](Cc2ccccc2)NC(=O)CSC[C@@H](C(=O)NCC(N)=O)NC(=O)[C@H](CCCNC(=N)N)NC(=O)[C@H](C)N(C)C(=O)[C@H](COCc2ccccc2)N(C)C(=O)[C@H](Cc2c[nH]c3ccccc23)NC(=O)[C@H](CO)NC(=O)[C@H](Cc2c[nH]c3ccccc23)NC(=O)CN(C)C1=O [Example 6012] ({CH2CO}-F[NMeA]NPHL[Sar]WSW[NMeS](Bn)[NMeA]RCG-NH2; thioether N-14) |
| 4.78 to 72.9 nM | 6.76 to 30.3 nM |  | CCCC[C@H]1C(=O)N[C@@H](CCCNC(=N)N)C(=O)NC(C(=O)NCC(N)=O)CSCC(=O)N[C@@H](Cc2ccc(O)cc2)C(=O)N(C)[C@@H](C)C(=O)N[C@@H](CC(N)=O)C(=O)N2CCC[C@H]2C(=O)N[C@@H](Cc2cnc[nH]2)C(=O)N[C@@H](CO)C(=O)N2C[C@H](O)C[C@H]2C(=O)N[C@@H](Cc2c[nH]c3ccccc23)C(=O)N[C@@H](CO)C(=O)N[C@@H](Cc2csc3ccccc23)C(=O)N(C)[C@@H](CCSC)C(=O)N1C (stereo partly shown) [Example 9114] ({CH2CO}-Y[NMeA]NPHS[Hyp]WS[Bta][NMeM][NMeNle]R[ξC]G-NH2; thioether N-14) |
| 0.158 to 4.71 nM | 0.385 to 6.74 nM |  | CCCC[C@H]1C(=O)N[C@@H](CCCNC(=N)N)C(=O)NC(C(=O)NCC(N)=O)CSCC(=O)N[C@@H](Cc2ccc(O)cc2)C(=O)N(C)[C@@H](C)C(=O)N[C@@H](CC(N)=O)C(=O)N2CCC[C@H]2C(=O)N[C@@H](CO)C(=O)N[C@@H](CC(C)C)C(=O)N2C[C@H](O)C[C@H]2C(=O)N[C@@H](Cc2c[nH]c3ccccc23)C(=O)N[C@@H](CO)C(=O)N[C@@H](Cc2csc3ccccc23)C(=O)N(C)[C@@H](CCSC)C(=O)N1C (stereo partly shown) [Example 9099] ({CH2CO}-Y[NMeA]NPSL[Hyp]WS[Bta][NMeM][NMeNle]R[ξC]G-NH2; thioether N-14) |
|  | 0.385 to 6.74 nM | 0.158 to 4.71 nM | CCCC[C@H]1C(=O)N2C[C@H](O)C[C@@H]2C(=O)N[C@@H](CC(=O)O)C(=O)N[C@@H](C(C)C)C(=O)N(C)[C@@H](Cc2ccccc2)C(=O)N[C@@H](Cc2ccc(O)cc2)C(=O)N(C)[C@@H](CCC(=O)O)C(=O)N[C@@H](Cc2c[nH]c3ccccc23)C(=O)N[C@@H](Cc2ccc(O)cc2)C(=O)N[C@@H](CC(C)C)C(=O)N[C@H](C(=O)NCC(N)=O)CSCC(=O)N[C@@H](Cc2cc(F)c(F)c(F)c2)C(=O)N(C)[C@@H](Cc2ccccc2)C(=O)N1C [Example 3182] ({CH2CO}-[Phe(3,4,5-F3)][NMeF][NMeNle][d(cisHyp)]DV[NMeF]Y[NMeE]WYLCG-NH2; thioether N-13) |
| > 74.3 nM | > 30.5 nM |  | CCCC[C@H]1C(=O)N(C)[C@@H](CCCC)C(=O)N[C@@H](CCCNC(=N)N)C(=O)N[C@H](C(=O)NCC(N)=O)CSCC(=O)N[C@@H](Cc2ccc(C(C)(C)C)cc2)C(=O)N(C)[C@@H](C)C(=O)N[C@@H](CC(N)=O)C(=O)N2CCC[C@H]2C(=O)N[C@@H](Cc2cnc[nH]2)C(=O)N[C@@H](CC(C)C)C(=O)N2C[C@H](O)C[C@H]2C(=O)N[C@@H](Cc2c[nH]c3ccccc23)C(=O)N[C@@H](CO)C(=O)N[C@@H](Cc2c[nH]c3ccccc23)C(=O)N1C [Example 7045] ({CH2CO}-[Phe(4-tBu)][NMeA]NPHL[Hyp]WSW[NMeNle][NMeNle]RCG-NH2; thioether N-14) |
|  | 0.385 to 6.74 nM | 0.158 to 4.71 nM | CCCC[C@H]1C(=O)N(C)[C@@H](CCCC)C(=O)N[C@@H](CCCNC(=N)N)C(=O)N[C@H](C(=O)NCC(N)=O)CSCC(=O)N[C@@H](Cc2ccc(O)cc2)C(=O)N(C)[C@@H](C)C(=O)N[C@@H](CC(N)=O)C(=O)N2CCC[C@H]2C(=O)N[C@@H](CN)C(=O)N[C@@H](CC(C)C)C(=O)N2CCC[C@H]2C(=O)N[C@@H](Cc2c[nH]c3ccccc23)C(=O)N[C@@H](CO)C(=O)N[C@@H](Cc2c[nH]c3ccccc23)C(=O)N1C [Example 1113] ({CH2CO}-Y[NMeA]NP[Dap]LPWSW[NMeNle][NMeNle]RCG-NH2; thioether N-14) |
| 4.78 to 72.9 nM | 6.76 to 30.3 nM |  | CCCC[C@H]1C(=O)N(C)[C@@H](CCCC)C(=O)N[C@@H](CCN)C(=O)N[C@H](C(=O)NCC(N)=O)CSCC(=O)N[C@@H](Cc2ccc(O)cc2)C(=O)N(C)[C@@H](C)C(=O)N[C@@H](CCN)C(=O)N2CCC[C@H]2C(=O)N[C@@H](CN)C(=O)N[C@@H](CC(C)C)C(=O)N2C[C@H](O)C[C@H]2C(=O)N[C@@H](Cc2c[nH]c3ccccc23)C(=O)N[C@@H](CCN)C(=O)N[C@@H](Cc2c[nH]c3ccccc23)C(=O)N1C [Example 5140] ({CH2CO}-Y[NMeA][Dab]P[Dap]L[Hyp]W[Dab]W[NMeNle][NMeNle][Dab]CG-NH2; thioether N-14) |
|  | > 30.5 nM | > 74.3 nM | CCCC[C@H]1C(=O)N(C)CC(=O)N[C@@H](CC(=O)O)C(=O)N[C@@H](C(C)C)C(=O)N[C@@H](Cc2ccccc2C)C(=O)N[C@@H](Cc2ccc(O)cc2)C(=O)N(C)CC(=O)N[C@@H](Cc2c[nH]c3ccccc23)C(=O)N[C@@H](Cc2ccc(O)cc2)C(=O)N[C@@H](CC(C)C)C(=O)N[C@H](C(=O)NCC(N)=O)CSCC(=O)N[C@@H](Cc2ccccc2)C(=O)N(C)[C@@H](Cc2ccccc2)C(=O)N1C [Example 3133] ({CH2CO}-F[NMeF][NMeNle][Sar]DV[Phe(2-Me)]Y[Sar]WYLCG-NH2; thioether N-13) |
| 0.158 to 4.71 nM | 6.76 to 30.3 nM |  | CCCC[C@H]1C(=O)N2C[C@H](O)C[C@@H]2C(=O)N[C@@H](CC(N)=O)C(=O)N[C@@H](C(C)C)C(=O)N(C)[C@@H](Cc2ccccc2)C(=O)N[C@@H](Cc2ccc(O)cc2)C(=O)N(C)[C@H](CCC(=O)O)C(=O)N[C@@H](Cc2c[nH]c3ccccc23)C(=O)N[C@@H](Cc2ccc(O)cc2)C(=O)N[C@@H](CCCCN)C(=O)N[C@H](C(=O)NCC(N)=O)CSCC(=O)N[C@@H](Cc2ccccc2)C(=O)N(C)[C@@H](Cc2ccccc2)C(=O)N1C [Example 3594] ({CH2CO}-F[NMeF][NMeNle][d(cisHyp)]NV[NMeF]Y[dNMeE]WYKCG-NH2; thioether N-13) |
| > 74.3 nM | 0.385 to 6.74 nM |  | CCCC[C@H]1C(=O)N(C)[C@@H](CCCC)C(=O)N[C@@H](CCCNC(=N)N)C(=O)NC(C(=O)NCC(N)=O)CSCC(=O)N[C@@H](Cc2ccc(O)cc2)C(=O)N(C)[C@@H](C)C(=O)N[C@@H](CC(N)=O)C(=O)N2CCC[C@H]2C(=O)N[C@@H](Cc2cnc[nH]2)C(=O)N[C@@H](CCO)C(=O)N2C[C@H](O)C[C@H]2C(=O)N[C@@H](Cc2c[nH]c3ccccc23)C(=O)N[C@@H](CO)C(=O)N[C@@H](Cc2csc3ccccc23)C(=O)N1C (stereo partly shown) [Example 9050] ({CH2CO}-Y[NMeA]NPH[hSer][Hyp]WS[Bta][NMeNle][NMeNle]R[ξC]G-NH2; thioether N-14) |
| 4.78 to 72.9 nM | 0.385 to 6.74 nM |  | CCCC[C@H]1C(=O)N(C)[C@@H](CCSC)C(=O)N[C@@H](C)C(=O)NC(C(=O)NCC(N)=O)CSCC(=O)N[C@@H](Cc2ccc(O)cc2)C(=O)N(C)[C@@H](C)C(=O)N[C@@H](CC(N)=O)C(=O)N2CCC[C@H]2C(=O)N[C@@H](CN)C(=O)N[C@@H](CC(C)C)C(=O)N2CCC[C@H]2C(=O)N[C@@H](Cc2c[nH]c3ccccc23)C(=O)N[C@@H](CO)C(=O)N[C@@H](Cc2c[nH]c3ccccc23)C(=O)N1C (stereo partly shown) [Example 9085] ({CH2CO}-Y[NMeA]NP[Dap]LPWSW[NMeNle][NMeM]A[ξC]G-NH2; thioether N-14) |
|  | 6.76 to 30.3 nM | 4.78 to 72.9 nM | CCCC[C@H]1C(=O)N(C)[C@@H](CCCC)C(=O)N[C@@H](CC(=O)O)C(=O)N[C@H](C(=O)NCC(N)=O)CSCC(=O)N[C@@H](Cc2ccccc2)C(=O)N(C)[C@@H](C)C(=O)N[C@@H](CC(=O)O)C(=O)N2CCC[C@H]2C(=O)N[C@@H](Cc2cnc[nH]2)C(=O)N[C@@H](CCCNC(=N)N)C(=O)N(C)CC(=O)N[C@@H](Cc2c[nH]c3ccccc23)C(=O)N[C@@H](CCCNC(=N)N)C(=O)N[C@@H](Cc2c[nH]c3ccccc23)C(=O)N1C [Example 1056] ({CH2CO}-F[NMeA]DPHR[Sar]WRW[NMeNle][NMeNle]DCG-NH2; thioether N-14) |
